Measured values reported in patent publication US6444685B1, “N-(4-sulfonylaryl)Cyclylamine 2-hydroxyethylamines as beta-3 adrenergic receptor agonists” (Wyeth, priority 2000, dated 2002).

Key:
[1] = molecular target: T1, human β3 adrenergic receptor (Homo sapiens, UniProt P13945); assay: cAMP accumulation (SPA) in CHO cells transfected with human β3 adrenergic receptor; type: cell-based; conditions: for EC50: CHO cells expressing human β3-AR, cAMP, 30 min incubation, 10^−9 M to 10^−5 M, read-out: beta-3 EC50; for beta-3 (IA) maximal response relative to isoproterenol: IA = % activity compound / % activity isoproterenol at 10^−5 M, CHO human β3 cells
T1 construct: Full length β3 AR clones (402 amino acids) containing the last 6 amino acids of hβ3— AR are prepared; expressed in transfected cells; host or cells: CHO cells
Procedure, shortened: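 CHO cells expressing human β3-AR (70–110 fmol/mg protein) treated with compound at 10^−9 to 10^−5 M in DMEM with 250 μM IBMX and 1 mM ascorbic acid, 30 min, 37 °C. cAMP measured by SPA; EC50 derived, and intrinsic activity expressed relative to the maximal response of 10^−5 M isoproterenol.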

[2] = molecular target: T2, human β2-adrenergic receptor (Homo sapiens, UniProt P07550); assay: cAMP accumulation (SPA) in CHO cells transfected with human β2 adrenergic receptor; type: cell-based; conditions: for EC50: CHO cells transfected with human β2-AR, cAMP, 15 min incubation, 10^−8 to 10^−4 M, read-out: beta-2 EC50; for beta-2 (IA) maximal response relative to isoproterenol: IA = % activity compound / % activity isoproterenol at 10^−5 M, CHO human β2 cells
T2 construct: expressed in transfected cells; host or cells: CHO cells
Procedure, shortened: (§1)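 CHO cell clones expressing 70–110 fmol/mg protein of receptor were pre-incubated 30 min at 37 °C, then treated 15 min at 37 °C with compound (10^−8 to 10^−4 M) in DMEM with 250 μM IBMX and 1 mM ascorbic acid. cAMP was read by SPA after acid stop. EC50 and IA were expressed relative to maximal 10^−5 M isoproterenol response.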

[3] = molecular target: T3, human β1-adrenergic receptor (Homo sapiens, UniProt P08588); assay: cAMP accumulation (SPA) in CHO cells transfected with human β1 adrenergic receptor; type: cell-based; conditions: for EC50: CHO cells transfected with human β1-AR, cAMP, 15 min incubation, 10^−8 to 10^−4 M, read-out: beta-1 EC50; for beta-1 (IA) maximal response relative to isoproterenol: IA = % activity compound / % activity isoproterenol at 10^−5 M, CHO human β1 cells
T3 construct: expressed in transfected cells; host or cells: CHO cells
Procedure, shortened: as §1

T2 sequence (P07550 whole entry): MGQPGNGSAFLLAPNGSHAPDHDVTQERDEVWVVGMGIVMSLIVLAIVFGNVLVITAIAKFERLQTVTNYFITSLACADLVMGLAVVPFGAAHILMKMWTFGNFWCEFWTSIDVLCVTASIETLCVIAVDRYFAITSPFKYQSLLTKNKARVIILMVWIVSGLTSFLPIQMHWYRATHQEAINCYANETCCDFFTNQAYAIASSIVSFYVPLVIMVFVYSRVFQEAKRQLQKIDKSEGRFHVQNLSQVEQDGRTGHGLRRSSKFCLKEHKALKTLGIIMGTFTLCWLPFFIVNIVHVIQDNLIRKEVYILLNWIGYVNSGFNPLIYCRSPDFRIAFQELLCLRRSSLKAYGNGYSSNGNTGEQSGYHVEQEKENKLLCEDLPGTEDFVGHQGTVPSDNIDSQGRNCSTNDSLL
T3 sequence (P08588 whole entry): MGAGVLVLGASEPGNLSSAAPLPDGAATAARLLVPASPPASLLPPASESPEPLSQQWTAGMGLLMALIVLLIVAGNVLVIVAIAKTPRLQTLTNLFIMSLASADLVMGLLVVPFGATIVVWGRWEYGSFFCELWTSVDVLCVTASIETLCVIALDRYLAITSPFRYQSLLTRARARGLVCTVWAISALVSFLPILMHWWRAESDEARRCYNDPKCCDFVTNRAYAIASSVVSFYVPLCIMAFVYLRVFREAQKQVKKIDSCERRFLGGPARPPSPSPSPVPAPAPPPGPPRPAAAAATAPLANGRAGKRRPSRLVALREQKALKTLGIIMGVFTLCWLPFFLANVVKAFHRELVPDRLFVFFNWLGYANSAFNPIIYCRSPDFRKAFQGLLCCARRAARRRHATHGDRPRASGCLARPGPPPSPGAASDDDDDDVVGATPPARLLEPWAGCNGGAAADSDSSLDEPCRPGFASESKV
T1 sequence (P13945 whole entry): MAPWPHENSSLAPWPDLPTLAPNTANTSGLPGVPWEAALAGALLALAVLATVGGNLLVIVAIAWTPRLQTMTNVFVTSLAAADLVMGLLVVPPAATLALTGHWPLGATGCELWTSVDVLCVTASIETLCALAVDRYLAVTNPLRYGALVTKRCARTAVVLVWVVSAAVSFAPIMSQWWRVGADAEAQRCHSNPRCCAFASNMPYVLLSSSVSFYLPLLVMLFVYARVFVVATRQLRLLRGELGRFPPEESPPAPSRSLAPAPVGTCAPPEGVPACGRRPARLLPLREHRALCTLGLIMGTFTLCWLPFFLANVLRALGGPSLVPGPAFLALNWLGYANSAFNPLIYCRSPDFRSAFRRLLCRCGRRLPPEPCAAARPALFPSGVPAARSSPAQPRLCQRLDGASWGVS

| EC50 [1] | beta-3 (IA) maximal response relative to isoproterenol [1] | EC50 [2] | beta-2 (IA) maximal response relative to isoproterenol [2] | EC50 [3] | beta-1 (IA) maximal response relative to isoproterenol [3] | melting point | SMILES |
| --- | --- | --- | --- | --- | --- | --- | --- |
| 6 nM | (0.93) | 3200 nM | (0.46) | 1000 nM | (0.47) | 93 to 95 °C | CC#CCC(CC#CC)(C(=O)OC(C)(C)C)S(=O)(=O)c1ccc(N2CCC(NC[C@H](O)c3ccc(O)c(NS(C)(=O)=O)c3)CC2)cc1 [Example 47, 2-(2-Butynyl)-2-[(4-{4-[((2R)-2-hydroxy-2-{4-hydroxy-3-[(methylsulfonyl)amino]-phenyl}ethyl)amino]-1-piperidinyl}phenyl)sulfonyl]-4-hexynoicacid tert-Butyl Ester] |
| 590 nM | (1) | 10000 nM | (0.54) | 10000 nM | (0.26) | 175 to 177 °C | CC#CCC(CC#CC)(C(=O)O)S(=O)(=O)c1ccc(N2CCC(NC[C@H](O)c3ccc(O)c(NS(C)(=O)=O)c3)CC2)cc1 [Example 48, 2-(2-Butynyl)-2-[(4-{4-[((2R)-2-hydroxy-2-{4-hydroxy-3-[(methylsulfonyl)amino]phenyl}ethyl)amino]-1-piperidinyl}phenyl)sulfonyl]-4-hexynoicacid] |
| 10 nM | (1) | 7000 nM | (0.35) | 2600 nM | (0.72) | 200 to 202 °C | CS(=O)(=O)Nc1cc([C@@H](O)CNC2CCN(c3ccc(S(=O)(=O)N4CC(=O)NC4=O)cc3)CC2)ccc1O [Example 50, N-[5-((1R)-2-{1-[4-(2,4-Dioxo-imidazolidine-1-sulfonyl)-phenyl]piperidin-4-ylamino}-1-hydroxy-ethyl)-2-hydroxy-phenyl]-methanesulfonamide] |
| 6 nM | (1) | 480 nM | (0.65) | 960 nM | (0.48) | 113 to 115 °C | CC(C)(C)OC(=O)CNS(=O)(=O)c1ccc(N2CCC(NC[C@H](O)c3ccc(O)c(NS(C)(=O)=O)c3)CC2)cc1 [Example 52, tert-Butyl 2-{[(4-{4-[((2R)-2-hydroxy-2-{4-hydroxy-3-[(methylsulfonyl)amino]-phenyl}ethyl)amino]-1-piperidinyl}phenyl)sulfonyl]amino}acetate] |
| 14 nM | (1) | 1600 nM | (0.27) | 9500 nM | (0.31) | 105 to 107 °C | CCOC(=O)CNS(=O)(=O)c1ccc(N2CCC(NC[C@H](O)c3ccc(O)c(NS(C)(=O)=O)c3)CC2)cc1 [Example 56, Ethyl 2-{[(4-{4-[((2R)-2-Hydroxy-2-{4-hydroxy-3-[(methylsulfonyl)amino]-phenyl}ethyl)amino]-1-piperidinyl}phenyl)sulfonyl]amino}acetate] |
| 11 nM | (1) | 3900 nM | (0.31) | 3600 nM | (0.65) | 98 to 105 °C | CCOC(=O)NC(=O)CNS(=O)(=O)c1ccc(N2CCC(NC[C@H](O)c3ccc(O)c(NS(C)(=O)=O)c3)CC2)cc1 [Example 58, Ethyl 2-{[(4-{4-[((2R)-2-Hydroxy-2-{4-hydroxy-3-((methylsulfonyl)amino]-phenyl}ethyl)amino]piperidin-1-yl}phenyl)sulfonyl]amino}acetylcarbamate] |
| 15 nM | (0.98) | 12000 nM | (0.2) | 7800 nM | (0.52) | 110 to 115 °C | COC(=O)N(CC(=O)OC(C)(C)C)S(=O)(=O)c1ccc(N2CCC(NC[C@H](O)c3ccc(O)c(NS(C)(=O)=O)c3)CC2)cc1 [Example 59, tert-Butyl [[(4-{4-[((2R)-2-Hydroxy-2-{4-hydroxy-3-[(methylsulfonyl)amino]-phenyl}ethyl)amino]piperidin-1-yl}phenyl)sulfonyl](methoxycarbonyl)-amino]acetate] |
| 1 nM | (1.1) | – | (0.2) | 1900 nM | (0.3) | 85 to 90 °C | CCOC(=O)CN(Cc1cc(F)ccc1F)S(=O)(=O)c1ccc(N2CCC(NC[C@H](O)c3ccc(O)c(NS(C)(=O)=O)c3)CC2)cc1 [Example 61, Ethyl {(2,5-Difluorobenzyl)[(4-{4-[((2R)-2-hydroxy-2-{4-hydroxy-3-[(methyl-sulfonyl)amino]phenyl}ethyl)amino]piperidin-1-yl}phenyl)sulfonyl]amino}acetate] |
| 9 nM | (1) | 5000 nM | (0.31) | 5000 nM | (0.32) | 100 to 102 °C | CCCCNC(=O)NS(=O)(=O)c1ccc(N2CCC(NC[C@H](O)c3ccc(O)c(NS(C)(=O)=O)c3)CC2)cc1 [Example 62, 1-[4-({[(Butylamino)carbonyl]amino}sulfonyl)phenyl]-4-[((2)-2-hydroxy-2-{4-hydroxy-3-[(methylsulfonyl)amino]phenyl}ethyl)amino]piperidine] |
| 4 nM | (1.1) | 5900 nM | (0.22) | – | (0.11) | 91 to 92 °C | CCOC(=O)CN1CCN(S(=O)(=O)c2ccc(N3CCC(NC[C@H](O)c4ccc(O)c(NS(C)(=O)=O)c4)CC3)cc2)CC1 [Example 64, Ethyl {4-((4-{4-[((2R)-2-Hydroxy-2-{4-hydroxy-3-[(methylsulfonyl)amino]-phenyl}ethyl)amino]piperidin-1-yl}phenyl)sulfonyl]piperazin-1-yl}acetate] |
| 25 nM | (0.95) | – | (0.17) | 2700 nM | (0.44) | 89 to 91 °C | CN1CCN(S(=O)(=O)c2ccc(N3CCC(NC[C@H](O)c4ccc(O)c(NS(C)(=O)=O)c4)CC3)cc2)CC1 [Example 66, N-(2-Hydroxy-5-{(1R)-1-hydroxy-2-[(1-{4-[(4-methylpiperazin-1-yl)sulfonyl]phenyl}piperidin-4-yl)amino]ethyl}phenyl)methanesulfonamide] |

| SMILES | EC50 [1] | beta-3 (IA) maximal response relative to isoproterenol [1] | EC50 [2] | beta-2 (IA) maximal response relative to isoproterenol [2] | EC50 [3] | beta-1 (IA) maximal response relative to isoproterenol [3] | melting point |
| --- | --- | --- | --- | --- | --- | --- | --- |
| CC(C)(C)OC(=O)CN(CC(=O)OC(C)(C)C)S(=O)(=O)c1ccc(N2CCC(NC[C@H](O)c3ccc(O)c(NS(C)(=O)=O)c3)CC2)cc1 [Example 54, tert-Butyl 2-{[2-(tert-butoxy)-2-oxoethyl][(4-{4-[((2R)-2-hydroxy-2-{4-hydroxy-3-[(methylsulfonyl)amino]phenyl}ethyl)amino]-1-piperidinyl}-phenyl)sulfonyl]amino}acetate] | 14 nM | (1.2) | 12000 nM | (0.42) | 2300 nM | (0.33) | 164 to 166 °C |
